Consider 27 compounds from ChEMBL document CHEMBL1138039, “Discovery and pharmacological evaluation of growth hormone secretagogue receptor antagonists” (J Med Chem, 2006).

Each structure is given as a SMILES string. Calls of active or inactive are those of the source. No cut-off for these calls is given here.

By IC50 is commonly meant the point on the concentration scale where inhibition reaches its midpoint. For orientation: bioavailability means the share of a dose that reaches the circulation, judged against a reference dose that is usually intravenous. One may read the half-life as how long it takes for the measured level to halve. The AUC is the area under the concentration-time curve, a measure of exposure. One may read the inhibition as how much of the control response was suppressed.

For series [1], the target named is T1, Growth hormone secretagogue receptor type 1 (Homo sapiens, UniProt Q92847). Nature of the series: Inhibition of [125I]ghrelin binding to GHS receptor in CHO-K cells. It counts as cell-based.
For series [2], the target named is T1, Growth hormone secretagogue receptor type 1. The series is described as follows: Activity at GHS receptor by calcium flux assay in CHO-K cells. It counts as functional, cell-based. In general terms: Calcium assays in cells follow changes in intracellular calcium, usually with a dye or a luminescent sensor.
In another series the target is T2, Dihydrofolate reductase (Homo sapiens, UniProt P00374).
T2 sequence (P00374 whole entry): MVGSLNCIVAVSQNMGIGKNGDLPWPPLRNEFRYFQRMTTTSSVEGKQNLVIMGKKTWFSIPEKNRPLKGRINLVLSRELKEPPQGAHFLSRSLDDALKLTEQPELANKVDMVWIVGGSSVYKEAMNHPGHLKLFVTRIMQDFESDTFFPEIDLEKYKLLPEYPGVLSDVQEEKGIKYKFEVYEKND
The series is described as follows: Inhibition of human recombinant DHFR assessed as rate of depletion of NADPH.

Series [3] in a line: Bioavailability in rat. Particulars: in vivo. It counts as ADME, organism-based.
Series [4] can be described thus: Half life in rat. Particulars: in vivo. It is filed as ADME, organism-based.
A short description of series [5]: AUC in orally dosed rat. Particulars: plasma, po. It counts as ADME, organism-based.
Series [6] in a line: Ratio of drug level in brain against plasma in rat after 1 hr. It counts as ADME, organism-based. Particulars: read-out: BBR.
Series [7] can be described thus: Ratio of drug level in brain against plasma in rat after 4 hrs. It counts as ADME, organism-based. Conditions: read-out: BBR.
Series [8] can be described thus: Ratio of drug level in brain against plasma in rat after 8 hrs. Particulars: read-out: BBR. It is filed as ADME, organism-based.
For series [9], the system named is Rattus norvegicus. The series is described as follows: Reduction of cumulative food intake in Sprague-Dawley rat at 50 mg/kg, po after 32 hrs. It is filed as functional. The arrangement: scale not given: the % may be the effect or the level left.
Series [10] concerns Rattus norvegicus. The series is described as follows: Reduction of cumulative food intake in Sprague-Dawley rat at 50 mg/kg, po after 24 hrs. It counts as functional. The arrangement: scale not given: the % may be the effect or the level left.
In series [11] the test system is Mus musculus. Nature of the series: Decrease of food intake in C57BL/6J mouse at 50 mg/kg, po after 1 day. It is filed as functional, organism-based. The arrangement: dose 50 mg/kg.
Series [12] deals with Mus musculus. The series is described as follows: Decrease of body weight in C57BL/6J mouse at 50 mg/kg, po after 14 days. It counts as functional. Also noted: scale not given: the % may be the effect or the level left.
The test system of series [13] is Mus musculus. The series is described as follows: Decrease of epididymal fat pad weight in C57BL/6J mouse at 50 mg/kg, po after 14 days. The arrangement: scale not given: the % may be the effect or the level left. It is filed as functional.
The test system of series [14] is Mus musculus. Nature of the series: Decrease of plasma insulin level in C57BL/6J mouse at 50 mg/kg, po after 14 days. Also noted: dose 50 mg/kg. It counts as functional, organism-based.
The subject of series [15] is Mus musculus. The series is described as follows: Change in lean body mass of C57BL/6J mouse at 50 mg/kg, po after 14 days. It is filed as functional, organism-based. Also noted: dose 50 mg/kg.
Series [16] deals with T3, Dihydrofolate reductase (Homo sapiens) (UniProt P00374).
T3 sequence (whole entry): T2 sequence (P00374 whole entry)
Nature of the series: Inhibition of human recombinant DHFR assessed as rate of depletion of NADPH at 1 uM.

In series [17] the test system is Mus musculus. Nature of the series: Reduction of cumulative food intake in fasted DIO mouse at 30 mg/kg, ip after 2 hrs. Also noted: dose 30 mg/kg. It counts as functional, organism-based.
Series [18] relates to Mus musculus. The series is described as follows: Reduction of cumulative food intake in fasted DIO mouse at 30 mg/kg, ip after 4 hrs. Also noted: dose 30 mg/kg. It counts as functional, organism-based.
For series [19], the system named is Mus musculus. Nature of the series: Reduction of cumulative food intake in fasted DIO mouse at 30 mg/kg, ip after 24 hrs. It is filed as functional, organism-based. Also noted: dose 30 mg/kg.
Series [20] can be described thus: Half life in DIO mouse. It counts as ADME, organism-based. Particulars: in vivo.
Series [21] in a line: AUC in orally dosed DIO mouse. It is filed as ADME, organism-based. Particulars: plasma, po.
For series [22], the system named is Mus musculus. The series is described as follows: Ratio of drug level in brain against plasma in orally dosed DIO mouse. It counts as ADME, organism-based. Particulars: po.
For series [23], the system named is Mus musculus. Nature of the series: Reduction of cumulative food intake in fasted DIO mouse at 100 mg/kg, po after 20 mins. It is filed as functional. The arrangement: scale not given: the % may be the effect or the level left.
In series [24] the test system is Mus musculus. Nature of the series: Reduction of cumulative food intake in fasted DIO mouse at 100 mg/kg, po after 1 hr. It is filed as functional. Also noted: scale not given: the % may be the effect or the level left.
Series [25] deals with Mus musculus. Nature of the series: Reduction of cumulative food intake in fasted DIO mouse at 30 mg/kg, po after 20 mins. It counts as functional. Also noted: scale not given: the % may be the effect or the level left.
Series [26] relates to Mus musculus. The series is described as follows: Reduction of cumulative food intake in fasted DIO mouse at 30 mg/kg, po after 1 hr. Also noted: scale not given: the % may be the effect or the level left. It counts as functional.

T1 sequence (Q92847 whole entry): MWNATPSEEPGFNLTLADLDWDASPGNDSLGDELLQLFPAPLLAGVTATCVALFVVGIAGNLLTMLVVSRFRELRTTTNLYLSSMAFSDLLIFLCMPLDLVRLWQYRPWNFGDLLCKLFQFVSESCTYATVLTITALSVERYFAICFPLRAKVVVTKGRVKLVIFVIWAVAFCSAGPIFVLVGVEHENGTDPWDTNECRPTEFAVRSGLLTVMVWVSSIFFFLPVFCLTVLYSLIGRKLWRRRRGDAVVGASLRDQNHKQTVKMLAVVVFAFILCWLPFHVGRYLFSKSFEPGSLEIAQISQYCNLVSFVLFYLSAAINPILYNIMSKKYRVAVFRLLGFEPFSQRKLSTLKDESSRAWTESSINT

For `Nc1nc(N)c(-c2ccc(NC(=O)C3CC3)cc2)c(COCc2ccccc2)n1`, the IC50 in series [1] is 66 nM; in series [2] it was 188 nM; on Dihydrofolate reductase it was 28000 nM. In series [3], this compound showed a bioavailability of 32%. Besides, in [4], the half-life was 2.4 h. Besides, in [5], the AUC was found to be 820 ng·h/mL. Moreover, in [6], the Kp at 1 h came to 0.26. In addition, the Kp at 4 h in series [7] worked out at 1.1. Besides, in series [8], the Kp at 8 h stood at 0.97. The Activity is given as 11% in the series on Rattus norvegicus [9], 9% in the series with Rattus norvegicus [10], 5.4% in the series on Mus musculus [12] and 20% in the series on Mus musculus [13]. For the same compound, the outcome in the series on Mus musculus [11] and with Mus musculus [14] was Active. In addition, the result in the series on Mus musculus [15] was inactive.
As for `CC(C)CC(=O)Nc1ccc(-c2c(N)nc(N)nc2COCc2ccccc2)cc1`, the IC50 in series [1] turned out to be 72 nM; in [2], 108 nM.
The corresponding values for `Nc1nc(N)c(-c2ccc(NC(=O)C3CCCO3)cc2)c(COCc2ccccc2)n1` (configuration not stated) are 391 nM and greater than 10000 nM.
In turn, `CCc1nc(N)nc(N)c1-c1ccc(NCc2ccc(Cl)cc2)cc1` came in with a bioavailability in series [3] of 75%.
Consider `Nc1nc(N)c(-c2ccc(NC(=O)Cc3ccsc3Br)cc2)c(COCc2ccccc2)n1`, for which the IC50 in [1] is 41 nM; in [2] it was 137 nM; at Dihydrofolate reductase, greater than 10000 nM.
For `CCC(=O)Nc1ccc(-c2c(N)nc(N)nc2COCc2ccccc2)cc1`, the IC50 in series [1] was 221 nM; in series [2], greater than 10000 nM.
`CC(C)N(C)C(=O)Nc1ccc(-c2c(N)nc(N)nc2COCc2ccccc2)cc1`: the 50% inhibitory concentration (IC50) in series [2] is greater than 10000 nM.
Take `CN(C(=O)C1CCCC1)c1ccc(-c2c(N)nc(N)nc2COCc2ccccc2)cc1`: the half-maximal inhibitory concentration (IC50) in series [1] was 1670 nM; in series [2], greater than 10000 nM.
In the case of `Nc1nc(N)c(-c2ccc(NC(=O)c3ccncc3)cc2)c(COCc2ccccc2)n1`, the figures for the IC50 in series [1] and in series [2] were 3080 nM and greater than 10000 nM, respectively.
For the compound `CCc1nc(N)nc(N)c1-c1ccc(NCc2ccc(S(C)(=O)=O)cc2)cc1`, the IC50 in series [1] was 7 nM; in [2], 19 nM; on Dihydrofolate reductase, less than 10 nM. The inhibition in [16] came out at 99%.
`CCc1nc(N)nc(N)c1-c1ccc2c(c1)nc(C1CCCC1)n2Cc1ccc(S(C)(=O)=O)cc1`: the values for the half-inhibitory concentration (IC50) (in series [1]; in series [2]; at Dihydrofolate reductase) were 8 nM, 109 nM and 1830 nM, respectively.
The corresponding values for `CCc1nc(N)nc(N)c1-c1ccc2c(c1)nc(-c1ccccc1)n2Cc1ccc(S(C)(=O)=O)cc1` are 16 nM, 249 nM and 2300 nM.
Regarding `Nc1nc(N)c(-c2ccc(NC(=O)Cc3ccccc3)cc2)c(COCc2ccccc2)n1`, the values for the IC50 (in series [1]; in series [2]; at Dihydrofolate reductase) were 37 nM, 408 nM and greater than 10000 nM, respectively.
Regarding `Nc1nc(N)c(-c2ccc(NCc3ccc(Cl)cc3)cc2)c(COCc2ccccc2)n1`, the Kp at 1 h in series [6] is 3.1. Further, the Kp at 8 h in [8] was 1.4. Moreover, the result in the series on Mus musculus [17], in the series on Mus musculus [18] and with Mus musculus [19] was Active.
As for `Nc1nc(N)c(-c2ccc(NC(=O)NCCc3ccccc3)cc2)c(COCc2ccccc2)n1`, the figures for the IC50 (in series [2]; at Dihydrofolate reductase) were 7 nM and greater than 10000 nM, respectively.
`Nc1nc(N)c(-c2ccc(NC(=O)CCc3ccccc3)cc2)c(COCc2ccccc2)n1`: the IC50 in series [1] worked out at 47 nM; in series [2] it was 343 nM.
In the case of `Nc1nc(N)c(-c2ccc(NC(=O)C3CCCC3)cc2)c(COCc2ccccc2)n1`, the IC50 in [1] is 18 nM; in series [2] it was 40 nM; at Dihydrofolate reductase, greater than 10000 nM.
As to `CC(C)(C)NC(=O)Nc1ccc(-c2c(N)nc(N)nc2COCc2ccccc2)cc1`, the 50% inhibitory concentration (IC50) in series [2] is 7 nM; on Dihydrofolate reductase it was greater than 100000 nM. In series [20], this compound had a half-life of 4.5 h. The same compound yielded an AUC in [21] of 12300 ng·h/mL. The BBR result with Mus musculus [22] is given as “Not Active”. In addition, the Activity in the series on Mus musculus [23] is recorded as 40%; with Mus musculus [24], 60%; in the series on Mus musculus [25], 40%; in the series on Mus musculus [26], 60%.
Consider `CC(NC(=O)Nc1ccc(-c2c(N)nc(N)nc2COCc2ccccc2)cc1)c1ccccc1` (configuration not stated), for which, in series [2], the IC50 worked out at 10 nM.
Take `Nc1nc(N)c(-c2ccc(NC(=O)c3ccsc3)cc2)c(COCc2ccccc2)n1`: the IC50 was 126 nM in series [1] and greater than 10000 nM in [2].
Take `Nc1nc(N)c(-c2ccc(NC(=O)Nc3ccccc3)cc2)c(COCc2ccccc2)n1`: the 50% inhibitory concentration (IC50) in series [2] is 88 nM; on Dihydrofolate reductase, greater than 10000 nM.
On to `Nc1nc(N)c(-c2ccc(NC(=O)Cc3ccsc3)cc2)c(COCc2ccccc2)n1`, for which the half-inhibitory concentration (IC50) in series [1] was determined as 70 nM; in series [2] it was 382 nM.
For `CC(C)NC(=O)Nc1ccc(-c2c(N)nc(N)nc2COCc2ccccc2)cc1`, the IC50 in [2] is 56 nM; at Dihydrofolate reductase, greater than 10000 nM.
Regarding `Nc1nc(N)c(-c2ccc(NC(=O)NCc3ccccc3)cc2)c(COCc2ccccc2)n1`, the IC50 in series [2] was 34 nM.
Regarding `CCc1nc(N)nc(N)c1-c1ccc2c(c1)ncn2Cc1ccc(S(C)(=O)=O)cc1`, the IC50 worked out at 4 nM in [1] and 11 nM in [2]. Also, the inhibition in series [16] was 78%.
As to `Nc1nc(N)c(-c2ccc(NC(=O)Cc3cccnc3)cc2)c(COCc2ccccc2)n1`, the 50% inhibitory concentration (IC50) in series [1] is greater than 1000 nM; in series [2] it was greater than 10000 nM.
On to `CC(=O)Nc1ccc(-c2c(N)nc(N)nc2COCc2ccccc2)cc1`, for which the IC50 in [1] was 2270 nM; in [2], greater than 10000 nM.
